# Assay results: US20250176599A1, “FLAVOR COMPOSITION AND FOOD AND BEVERAGE” (TAKASAGO INTERNATIONAL CORPORATION, priority 2021, published 2025)
# Legend:
# [1] = Sensory evaluation of aqueous solution I containing (E)-2-nonenal 1 ppb: off-flavor intensity and masking component intensity; conditions: average panel score
# Experimental: (§1) In ion-exchanged water, each degradation component was added to achieve the concentrations listed in Table 1, and aqueous solutions I to VI containing these degradation components were prepared.
# (§2) For the aforementioned aqueous solutions containing degradation components, nootkatone was added at the concentrations listed in Table 2 to confirm the intensity of the off-flavor (masking effect) in each sample and the intensity of the masking component itself (the impact on the flavor of the food and/or beverage itself).
# (§3) The test was conducted as follows. Eight experienced panelists were selected to conduct a sensory evaluation. The intensity of the off-flavor of the aqueous solution containing the degradation components derived from unsaturated fatty acids, without added masking components, was set as “Evaluation: 4.” The ion-exchanged water free of any degradation components was set as “Evaluation: 0.” The intensity of the off-flavor (masking effect) of each sample was then relatively evaluated according to the following evaluation criteria.
# (§4) • Off-flavor is strongly sensed: 4 points • Off-flavor is sensed: 3 points • Off-flavor is slightly sensed: 2 points • Off-flavor is barely sensed: 1 point • Off-flavor is not sensed at all: 0 points
# (§5) Also, the intensity of the masking components (impact on the flavor of the food and/or beverage itself) was absolutely evaluated according to the following evaluation criteria.
# (§6) • Masking component is strongly sensed: 4 points • Masking component is sensed: 3 points • Masking component is slightly sensed: 2 points • Masking component is barely sensed: 1 point • Masking component is not sensed at all: 0 points
# [2] = Sensory evaluation of aqueous solution II containing (E)-2-octenal 10 ppb: off-flavor intensity and masking component intensity; conditions: average panel score
# Experimental: as §1, §2, §3, §4, §5, §6
# [3] = Sensory evaluation of aqueous solution III containing 1-octen-3-one 1 ppb: off-flavor intensity and masking component intensity; conditions: average panel score
# Experimental: as §1, §2, §3, §4, §5, §6
# [4] = Sensory evaluation of aqueous solution IV containing 1,5-octadien-3-one 100 ppt: off-flavor intensity and masking component intensity; conditions: aqueous solution IV, average panel score
# Experimental: as §1, §2, §3, §4, §5, §6
# [5] = Sensory evaluation of aqueous solution V containing 1-octen-3-ol 10 ppb: off-flavor intensity and masking component intensity; conditions: average panel score
# Experimental: as §1, §2, §3, §4, §5, §6
# [6] = Sensory evaluation of aqueous solution VI containing 1,5-octadien-3-ol 10 ppb: off-flavor intensity and masking component intensity; conditions: aqueous solution VI, average panel score
# Experimental: as §1, §2, §3, §4, §5, §6
# [7] = Overall conclusion of the sensory evaluation across aqueous solutions I to VI
# Experimental: as §1, §2, §3, §4, §5, §6
compound,measurement,setting,value
"CC1CCC(C(C)C)C(OCC(O)CO)C1 (centres unmarked) [3-menthoxypropan-1,2-diol]",Masking Component Intensity,[1]; 1 ppb added,0.3
same,Off-Flavor Intensity,[1]; 1 ppb added,3.4
same,Masking Component Intensity,[1]; 1 ppm added,1.1
same,Off-Flavor Intensity,[1]; 1 ppm added,2.9
same,Masking Component Intensity,[1]; 10 ppb added,0.6
same,Off-Flavor Intensity,[1]; 10 ppb added,3.1
same,Masking Component Intensity,[1]; 10 ppm added,1.9
same,Off-Flavor Intensity,[1]; 10 ppm added,2.6
same,Masking Component Intensity,[1]; 50 ppm added,2.5
same,Off-Flavor Intensity,[1]; 50 ppm added,1.9
same,Masking Component Intensity,[1]; 100 ppb added,0.8
same,Off-Flavor Intensity,[1]; 100 ppb added,3.1
same,Masking Component Intensity,[1]; 100 ppm added,3.3
same,Off-Flavor Intensity,[1]; 100 ppm added,1.8
same,Masking Component Intensity,[1]; 100 ppt added,0.3
same,Off-Flavor Intensity,[1]; 100 ppt added,3.4
same,Masking Component Intensity,[2]; 1 ppb added,0.4
same,Off-Flavor Intensity,[2]; 1 ppb added,3.0
same,Masking Component Intensity,[2]; 1 ppm added,1.4
same,Off-Flavor Intensity,[2]; 1 ppm added,2.3
same,Masking Component Intensity,[2]; 10 ppb added,0.5
same,Off-Flavor Intensity,[2]; 10 ppb added,3.0
same,Masking Component Intensity,[2]; 10 ppm added,2.0
same,Off-Flavor Intensity,[2]; 10 ppm added,1.8
same,Masking Component Intensity,[2]; 50 ppm added,3.1
same,Off-Flavor Intensity,[2]; 50 ppm added,1.5
same,Masking Component Intensity,[2]; 100 ppb added,1.0
same,Off-Flavor Intensity,[2]; 100 ppb added,2.8
same,Masking Component Intensity,[2]; 100 ppm added,4.0
same,Off-Flavor Intensity,[2]; 100 ppm added,1.1
same,Masking Component Intensity,[2]; 100 ppt added,0.4
same,Off-Flavor Intensity,[2]; 100 ppt added,3.1
same,Masking Component Intensity,[3]; 1 ppb added,0.5
same,Off-Flavor Intensity,[3]; 1 ppb added,3.3
same,Masking Component Intensity,[3]; 1 ppm added,1.5
same,Off-Flavor Intensity,[3]; 1 ppm added,2.5
same,Masking Component Intensity,[3]; 10 ppb added,0.6
same,Off-Flavor Intensity,[3]; 10 ppb added,2.9
same,Masking Component Intensity,[3]; 10 ppm added,2.1
same,Off-Flavor Intensity,[3]; 10 ppm added,2.3
same,Masking Component Intensity,[3]; 50 ppm added,3.0
same,Off-Flavor Intensity,[3]; 50 ppm added,1.9
same,Masking Component Intensity,[3]; 100 ppb added,1.1
same,Off-Flavor Intensity,[3]; 100 ppb added,2.8
same,Masking Component Intensity,[3]; 100 ppm added,3.8
same,Off-Flavor Intensity,[3]; 100 ppm added,1.6
same,Masking Component Intensity,[3]; 100 ppt added,0.1
same,Off-Flavor Intensity,[3]; 100 ppt added,3.3
same,Masking Component Intensity,[4]; 1 ppb added,0.0
same,Off-Flavor Intensity,[4]; 1 ppb added,3.8
same,Masking Component Intensity,[4]; 1 ppm added,1.0
same,Off-Flavor Intensity,[4]; 1 ppm added,3.3
same,Masking Component Intensity,[4]; 10 ppb added,0.1
same,Off-Flavor Intensity,[4]; 10 ppb added,3.5
same,Masking Component Intensity,[4]; 10 ppm added,1.5
same,Off-Flavor Intensity,[4]; 10 ppm added,2.9
same,Masking Component Intensity,[4]; 50 ppm added,2.4
same,Off-Flavor Intensity,[4]; 50 ppm added,2.5
same,Masking Component Intensity,[4]; 100 ppb added,0.9
same,Off-Flavor Intensity,[4]; 100 ppb added,3.5
same,Masking Component Intensity,[4]; 100 ppm added,3.0
same,Off-Flavor Intensity,[4]; 100 ppm added,2.1
same,Masking Component Intensity,[4]; 100 ppt added,0.0
same,Off-Flavor Intensity,[4]; 100 ppt added,3.9
same,Masking Component Intensity,[5]; 1 ppb added,0.3
same,Off-Flavor Intensity,[5]; 1 ppb added,3.1
same,Masking Component Intensity,[5]; 1 ppm added,1.4
same,Off-Flavor Intensity,[5]; 1 ppm added,2.6
same,Masking Component Intensity,[5]; 10 ppb added,0.6
same,Off-Flavor Intensity,[5]; 10 ppb added,2.6
same,Masking Component Intensity,[5]; 10 ppm added,2.1
same,Off-Flavor Intensity,[5]; 10 ppm added,2.0
same,Masking Component Intensity,[5]; 50 ppm added,2.0
same,Off-Flavor Intensity,[5]; 50 ppm added,1.6
same,Masking Component Intensity,[5]; 100 ppb added,1.0
same,Off-Flavor Intensity,[5]; 100 ppb added,2.5
same,Masking Component Intensity,[5]; 100 ppm added,3.8
same,Off-Flavor Intensity,[5]; 100 ppm added,1.4
same,Masking Component Intensity,[5]; 100 ppt added,0.3
same,Off-Flavor Intensity,[5]; 100 ppt added,3.3
same,Masking Component Intensity,[6]; 1 ppb added,0.1
same,Off-Flavor Intensity,[6]; 1 ppb added,3.0
same,Masking Component Intensity,[6]; 1 ppm added,0.8
same,Off-Flavor Intensity,[6]; 1 ppm added,2.6
same,Masking Component Intensity,[6]; 10 ppb added,0.4
same,Off-Flavor Intensity,[6]; 10 ppb added,3.0
same,Masking Component Intensity,[6]; 10 ppm added,2.0
same,Off-Flavor Intensity,[6]; 10 ppm added,2.3
same,Masking Component Intensity,[6]; 50 ppm added,2.9
same,Off-Flavor Intensity,[6]; 50 ppm added,1.9
same,Masking Component Intensity,[6]; 100 ppb added,0.4
same,Off-Flavor Intensity,[6]; 100 ppb added,3.0
same,Masking Component Intensity,[6]; 100 ppm added,3.5
same,Off-Flavor Intensity,[6]; 100 ppm added,1.3
same,Masking Component Intensity,[6]; 100 ppt added,0.0
same,Off-Flavor Intensity,[6]; 100 ppt added,3.0
same,"concentration that masks the off-flavor and does not affect the flavor of the food and/or beverage itself, lower limit",[7],≥ 100 ppt
same,"concentration that masks the off-flavor and does not affect the flavor of the food and/or beverage itself, upper limit",[7],≤ 100 ppm
